Measurements as given in patent US7393870B2, “3-(heteroarylamino)methylene-1, 3-dihydro-2H-indol-2-ones as kinase inhibitors” (Allergan, Inc., priority 2001, dated 2008).

Tested on: VEGF induced increases in intracellular calcium levels in HUVEC (human umbilical vein endothelial cells)
Assay: VEGF Stimulated Ca++ signal assay (FLIPR)
Assay type: cell-based
Conditions: 10 μM compound, 30 min pre-incubation, VEGF 5 ng/mL
Method: VEGF Stimulated Ca^++ Signal in vitro
(§1) Automated FLIPR (Fluorometric Imaging Plate Reader) technology was used to screen for inhibitors of VEGF induced increases in intracellular calcium levels in fluorescent dye loaded endothelial cells. HUVEC (human umbilical vein endothelial cells) (Clonetics) were seeded in 96-well fibronectin coated black-walled plates overnight @ 37° C./5% CO2. Cells were loaded with calcium indicator Fluo-4 for 45 minutes at 37° C. Cells were washed 4 times (Original Cell Wash, Labsystems) to remove extracellular dye. Test compounds were reconstituted in 100% DMSO and added to the cells to give a final DMSO concentration of 0.1%. […] Changes in fluorescence at 516 nm were measured simultaneously in all 96 wells using a cooled CCD camera. Data were generated by determining max-min fluorescence levels for unstimulated, stimulated, and drug treated samples. IC50 values for test compounds were calculated from % inhibition of VEGF stimulated responses in the absence of inhibitor. Protocol for KDR Assay: The cytoplasmic domain of the human VEGF receptor (VEGFR-2) was expressed as a Histidine-tagged fusion protein following infection of insect cells using an engineered baculovirus. His-VEGFR-2 was purified to homogeneity, as determined by SDS-PAGE, using nickel resin chromatography. […]

| Compound | inhibition at 10 µM [%] |
| --- | --- |
| Cc1cc(C)c(Cc2cc(NC=C3C(=O)Nc4ccccc43)[nH]n2)c(C)c1 [Example 36] | 69.3 |

Same assay, conditions: VEGF 5 ng/mL, 0.01 to 10.0 μM

| Compound | IC50 [µM] |
| --- | --- |
| Cc1cc(C)c(Cc2cc(NC=C3C(=O)Nc4ccccc43)[nH]n2)c(C)c1 [Example 36] | 5.9 |

Biological target: T1, cytoplasmic domain of the human VEGF receptor (VEGFR-2) (Homo sapiens, UniProt P35968)
T1 construct: The cytoplasmic domain of the human VEGF receptor (VEGFR-2) was expressed as a Histidine-tagged fusion protein; His (Histidine tag); made in house; host or cells: insect cells infected with an engineered baculovirus
T1 sequence (P35968 786-1356 limits assumed): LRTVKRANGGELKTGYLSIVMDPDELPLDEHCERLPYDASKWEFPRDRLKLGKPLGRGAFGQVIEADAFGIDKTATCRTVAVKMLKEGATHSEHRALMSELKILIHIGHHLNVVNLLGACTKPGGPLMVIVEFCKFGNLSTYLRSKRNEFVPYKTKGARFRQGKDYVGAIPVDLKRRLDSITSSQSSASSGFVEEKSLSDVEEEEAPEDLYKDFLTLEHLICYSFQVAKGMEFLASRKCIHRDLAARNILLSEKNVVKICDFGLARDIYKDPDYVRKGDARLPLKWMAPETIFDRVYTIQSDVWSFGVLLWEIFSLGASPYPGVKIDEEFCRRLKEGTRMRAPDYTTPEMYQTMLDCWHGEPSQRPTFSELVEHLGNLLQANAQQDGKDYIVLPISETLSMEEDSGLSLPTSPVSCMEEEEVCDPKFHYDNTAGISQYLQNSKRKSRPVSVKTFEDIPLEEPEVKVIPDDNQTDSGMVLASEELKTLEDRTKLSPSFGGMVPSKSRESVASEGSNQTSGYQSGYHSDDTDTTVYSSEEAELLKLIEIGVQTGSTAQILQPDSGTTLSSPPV
Assay: KDR Assay (kinase ELISA, poly-Glu-Tyr substrate)
Assay type: biochemical
Conditions: His-VEGFR-2, 3.6 μM ATP
Method: Automated FLIPR (Fluorometric Imaging Plate Reader) technology was used to screen for inhibitors of VEGF induced increases in intracellular calcium levels in fluorescent dye loaded endothelial cells. HUVEC (human umbilical vein endothelial cells) (Clonetics) were seeded in 96-well fibronectin coated black-walled plates overnight @ 37° C./5% CO2. Cells were loaded with calcium indicator Fluo-4 for 45 minutes at 37° C. Cells were washed 4 times (Original Cell Wash, Labsystems) to remove extracellular dye. Test compounds were reconstituted in 100% DMSO and added to the cells to give a final DMSO concentration of 0.1%. For screening, cells were pre-incubated with test agents for 30 minutes, at a single concentration (10 μM) or at concentrations ranging from 0.01 to 10.0 μM followed by VEGF stimulation (5 ng/mL). Changes in fluorescence at 516 nm were measured simultaneously in all 96 wells using a cooled CCD camera. Data were generated by determining max-min fluorescence levels for unstimulated, stimulated, and drug treated samples. IC50 values for test compounds were calculated from % inhibition of VEGF stimulated responses in the absence of inhibitor. Protocol for KDR Assay: The cytoplasmic domain of the human VEGF receptor (VEGFR-2) was expressed as a Histidine-tagged fusion protein following infection of insect cells using an engineered baculovirus. His-VEGFR-2 was purified to homogeneity, as determined by SDS-PAGE, using nickel resin chromatography. Kinase assays were performed in 96 well microtiter plates that were coated overnight with 30 μg of poly-Glu-Tyr (4:1) in 10 mM Phosphate Buffered Saline (PBS), pH 7.2-7.4. The plates were incubated with 1% BSA and then washed four times with PBS prior to starting the reaction. Reactions were carried out in 120 μL reaction volumes containing 3.6 μM ATP in kinase buffer (50 mM Hepes buffer pH 7.4, 20 mM MgCl2, 0.1 mM MnCl2 and 0.2 mM Na3VO4). Test compounds were reconstituted in 100% DMSO and added to the reaction to give a final DMSO concentration of 5%. Reactions were initiated by the addition 0.5 ng of purified protein. Following a ten minute incubation at 25° C., the reactions were washed four times with PBS containing 0.05% Tween-20. 100 μl of a monoclonal anti-phosphotyrosine antibody-peroxidase conjugate was diluted 1:10000 in PBS-Tween-20 and added to the wells for 30 minutes. Following four washes with PBS-Tween-20, 100 μl of 0-Phenylenediamine Dihydrochloride in Phosphate-citrate buffer, containing urea hydrogen peroxide, was added to the wells for 7 minutes as a colorimetric substrate for the peroxidase. The reaction was terminated by the addition of 100 μl of 2.5N H2SO4 to each well and read using a microplate ELISA reader set at 492 nm. IC50 values for compound inhibition were calculated directly from graphs of optical density (arbitrary units) versus compound concentration following subtraction of blank values. Miles Assay Description VEGF-induced Dermal Extravasation in Guinea Pig (Miles Assay). Male Hartley guinea pigs (300-600 g) were anesthetized with isofluorane, sheared, and given a single oral dose of drug or the respective vehicle. Ten minutes prior to the end of drug treatment, guinea pigs were anesthetized with isofluorane, and 0.5% Evans blue dye (EBD) in PBS (13-15 mg/kg dose of EBD) was injected intravenously. After 5 minutes, triplicate intradermal injections of 100 ng rhVEGF165 in 100 μl PBS and of 100 μl PBS alone were administered on the flank. After 20 minutes, each animal was euthanized with Pentosol, and the skin containing the intradermal injection sites was removed for image analysis.

| Compound | IC50 [µM] |
| --- | --- |
| COC(=O)c1ccc(-c2cc(NC=C3C(=O)Nc4ccccc43)n[nH]2)cc1 [Example 24, 4-{5-[(2-Oxo-1,2-dihydro-indol-3-ylidenemethyl)-amino]-2H-pyrazol-3-yl}-benzoic acid methyl ester] | ≥ 10 |
| O=C1Nc2ccccc2C1=CNc1cc(Cc2ccccc2)n[nH]1 [Example 40, 3-[(5-Benzyl-2H-pyrazol-3-ylamino)-methylene]-1,3-dihydro-indol-2-one] | ≥ 10 |
| O=C1Nc2ccc(Cl)cc2C1=CNc1n[nH]c(-c2ccccc2)c1Br [Example 13, 3-[(4-Bromo-5-phenyl-1H-pyrazol-3-ylamino)-methylene]-5-chloro-1,3-dihydro-indol-2-one] | ≥ 10 |
| O=C1Nc2ccccc2C1=CNc1cc(-c2cc(OCc3ccccc3)cc(OCc3ccccc3)c2)n[nH]1 [Example 31, 3-{[5-(3,5-Bis-benzyloxy-phenyl)-2H-pyrazol-3-ylamino]-methylene}-1,3-dihydro-indol-2-one] | ≥ 10 |

Other lines, results leading:

| IC50 [µM] | Compound |
| --- | --- |
| ≥ 10 | Cc1cc(C)c(Cc2cc(NC=C3C(=O)Nc4ccccc43)[nH]n2)c(C)c1 [Example 36] |
| ≥ 10 | Cc1cccc2c1C(=CNc1n[nH]c(-c3ccccc3)c1Br)C(=O)N2 [Example 12, 3-[(4-Bromo-5-phenyl-1H-pyrazol-3-ylamino)-methylene]-4-methyl-1,3-dihydro-indol-2-one] |
| ≥ 10 | Cc1ccc(-c2cc(NC=C3C(=O)Nc4ccccc43)[nH]n2)c(C)c1 [Example 34, 3-{[5-(2,4-Dimethyl-phenyl)-2H-pyrazol-3-ylamino]-methylene}-1,3-dihydro-indol-2-one] |
| ≥ 10 | Cc1cc(C)c2c(NC=C3C(=O)Nc4ccccc43)n[nH]c2n1 [Example 25, 3-[(4,6-Dimethyl-1H-pyrazolo[3,4-b]pyridin-3-ylamino)-methylene]-1,3-dihydro-indol-2-one] |
| ≥ 10 | Cc1cccc(Cc2cc(NC=C3C(=O)Nc4ccccc43)[nH]n2)c1 [Example 39, 3-{[5-(3-Methyl-benzyl)-2H-pyrazol-3-ylamino]-methylene}-1,3-dihydro-indol-2-one] |

Tested on: VEGF-induced EBD extravasation
Assay: Miles Assay: VEGF-induced Dermal Extravasation in Guinea Pig
Assay type: in vivo
Conditions: oral administration, Table 3
Method: as §1

| Compound | in-vivo activity (Miles Assay, in words) |
| --- | --- |
| Cc1cccc2c1C(=CNc1cc[nH]n1)C(=O)N2 [Example 6, 4-Methyl-3-[(1H-pyrazol-3-ylamino)-methylene]-1,3-dihydro-indol-2-one] | significant in-vivo activity |
| Cc1cc(NC=C2C(=O)Nc3ccc(F)cc32)n[nH]1 [Example 26, 5-Fluoro-3-[(5-methyl-1H-pyrazol-3-ylamino)-methylene]-1,3-dihydro-indol-2-one] | significant in-vivo activity |
